Source: ChEMBL document CHEMBL4052645, “Discovery of potent and efficacious pyrrolopyridazines as dual JAK1/3 inhibitors” (Bioorg Med Chem Lett, 2017)

What was measured:
[1] = biological target: 5'-AMP-activated protein kinase catalytic subunit alpha-2 (Homo sapiens) (UniProt P54646); experiment: Inhibition of wild-type human partial length AMPK alpha2 (M1 to E306 residues) expressed in bacterial expression system assessed as residual activity at 50 nM by Kinomescan method relative to control
[2] = biological target: Tyrosine-protein kinase FRK (Homo sapiens) (UniProt P42685); experiment: Inhibition of wild-type human partial length FRK (A215 to F503 residues) expressed in bacterial expression system assessed as residual activity at 50 nM by Kinomescan method relative to control
[3] = biological target: Calcium/calmodulin-dependent protein kinase type 1D (Homo sapiens) (UniProt Q8IU85); experiment: Inhibition of wild-type human partial length CAMK1D (M1 to K299 residues) expressed in bacterial expression system assessed as residual activity at 50 nM by Kinomescan method relative to control
[4] = biological target: Cyclin-dependent kinase-like 1 (Homo sapiens) (UniProt Q00532); experiment: Inhibition of wild-type human full length CDKL1 (M1 to I358 residues) expressed in mammalian expression system assessed as residual activity at 50 nM by Kinomescan method relative to control
[5] = biological target: TGF-beta receptor type-1 (Homo sapiens) (UniProt P36897); experiment: Inhibition of wild-type human partial length TGFBR1 (D179 to M503 residues) expressed in bacterial expression system assessed as residual activity at 50 nM by Kinomescan method relative to control
[6] = biological target: Glycogen synthase kinase-3 alpha (Homo sapiens) (UniProt P49840); experiment: Inhibition of wild-type human full length GSK3A (M1 to S483 residues) expressed in bacterial expression system assessed as residual activity at 50 nM by Kinomescan method relative to control
[7] = biological target: Tyrosine-protein kinase receptor Tie-1 (Homo sapiens) (UniProt P35590); experiment: Inhibition of wild-type human partial length TIE1 (T819 to A1138 residues) expressed in bacterial expression system assessed as residual activity at 50 nM by Kinomescan method relative to control
[8] = biological target: Mitogen-activated protein kinase 15 (Homo sapiens) (UniProt Q8TD08); experiment: Inhibition of wild-type human partial length ERK7 (M1 to P437 residues) expressed in bacterial expression system assessed as residual activity at 50 nM by Kinomescan method relative to control
[9] = biological target: Mitogen-activated protein kinase kinase kinase kinase 2 (Homo sapiens) (UniProt Q12851); experiment: Inhibition of human GCK (M1 to G318 residues) expressed in mammalian expression system assessed as residual activity at 50 nM by KINOMEscan assay relative to control
[10] = biological target: Serine/threonine-protein kinase 35 (Homo sapiens) (UniProt Q8TDR2); experiment: Inhibition of wild-type human partial length CLIK1 (G182 to A534 residues) expressed in bacterial expression system assessed as residual activity at 50 nM by Kinomescan method relative to control
[11] = biological target: Calcium/calmodulin-dependent protein kinase type IV (Homo sapiens) (UniProt Q16566); experiment: Inhibition of wild-type human partial length CAMK4 (A22 to A322 residues) expressed in bacterial expression system assessed as residual activity at 50 nM by Kinomescan method relative to control
[12] = biological target: Mitogen-activated protein kinase kinase kinase 15 (Homo sapiens) (UniProt Q6ZN16); experiment: Inhibition of wild-type human partial length MAP3K15 (T625 to L932 residues) expressed in mammalian expression system assessed as residual activity at 50 nM by Kinomescan method relative to control
[13] = biological target: SNF-related serine/threonine-protein kinase (Homo sapiens) (UniProt Q9NRH2); experiment: Inhibition of wild-type human partial length SNRK (M1 to E339 residues) expressed in mammalian expression system assessed as residual activity at 50 nM by Kinomescan method relative to control
[14] = biological target: Serine/threonine-protein kinase RIO3 (Homo sapiens) (UniProt O14730); experiment: Inhibition of full length human RIOK3 (M1 to E519 residues) expressed in bacterial expression system assessed as residual activity at 50 nM by KINOMEscan assay relative to control
[15] = biological target: Serine/threonine-protein kinase TNNI3K (Homo sapiens) (UniProt Q59H18); experiment: Inhibition of wild-type human HH498 (M1 to S835 residues) expressed in bacterial expression system assessed as residual activity at 50 nM by Kinomescan method relative to control
[16] = biological target: Serine/threonine-protein kinase TAO2 (Homo sapiens) (UniProt Q9UL54); experiment: Inhibition of wild-type human partial length TAO2 (M1 to A320 residues) expressed in mammalian expression system assessed as residual activity at 50 nM by Kinomescan method relative to control
[17] = biological target: Phosphatidylinositol 3-kinase C2 domain-containing subunit gamma (Homo sapiens) (UniProt O75747); experiment: Inhibition of wild-type human partial length PI3KC2G (M1 to I1446 residues) expressed in mammalian expression system assessed as residual activity at 50 nM by Kinomescan method relative to control
[18] = biological target: Serine/threonine-protein kinase 10 (Homo sapiens) (UniProt O94804); experiment: Inhibition of wild-type human partial length LOK (E16 to V314 residues) expressed in bacterial expression system assessed as residual activity at 50 nM by Kinomescan method relative to control
[19] = biological target: Protein kinase C eta type (Homo sapiens) (UniProt P24723); experiment: Inhibition of wild-type human partial length PKCH (S324 to P683 residues) expressed in bacterial expression system assessed as residual activity at 50 nM by Kinomescan method relative to control
[20] = biological target: Mitogen-activated protein kinase 3 (Homo sapiens) (UniProt P27361); experiment: Inhibition of wild-type human full length ERK1 (M1 to P379 residues) expressed in bacterial expression system assessed as residual activity at 50 nM by Kinomescan method relative to control
[21] = biological target: Serine/threonine-protein kinase 4 (Homo sapiens) (UniProt Q13043); experiment: Inhibition of wild-type human full length MST1 (M1 to F487 residues) expressed in bacterial expression system assessed as residual activity at 50 nM by Kinomescan method relative to control
[22] = biological target: Ephrin type-A receptor 4 (Homo sapiens) (UniProt P54764); experiment: Inhibition of wild-type human partial length EPHA4 (T601 to R897 residues) expressed in bacterial expression system assessed as residual activity at 50 nM by Kinomescan method relative to control
[23] = biological target: MAP kinase-activated protein kinase 2 (Homo sapiens) (UniProt P49137); experiment: Inhibition of wild-type human partial length MAPKAPK2 (V48 to D345 residues) expressed in bacterial expression system assessed as residual activity at 50 nM by Kinomescan method relative to control
[24] = biological target: Tyrosine-protein kinase SYK (Homo sapiens) (UniProt P43405); experiment: Inhibition of wild-type human partial length SYK (D354 to N635 residues) expressed in bacterial expression system assessed as residual activity at 50 nM by Kinomescan method relative to control
[25] = tested on: Plasmodium falciparum; experiment: Inhibition of wild-type Plasmodium falciparum full length PFB0815W (M1 to S524 residues) expressed in mammalian expression system assessed as residual activity at 50 nM by Kinomescan method relative to control

MAP kinase-activated protein kinase 2 (Homo sapiens), sequence (P49137 whole entry, looked up, the tested form may be a part): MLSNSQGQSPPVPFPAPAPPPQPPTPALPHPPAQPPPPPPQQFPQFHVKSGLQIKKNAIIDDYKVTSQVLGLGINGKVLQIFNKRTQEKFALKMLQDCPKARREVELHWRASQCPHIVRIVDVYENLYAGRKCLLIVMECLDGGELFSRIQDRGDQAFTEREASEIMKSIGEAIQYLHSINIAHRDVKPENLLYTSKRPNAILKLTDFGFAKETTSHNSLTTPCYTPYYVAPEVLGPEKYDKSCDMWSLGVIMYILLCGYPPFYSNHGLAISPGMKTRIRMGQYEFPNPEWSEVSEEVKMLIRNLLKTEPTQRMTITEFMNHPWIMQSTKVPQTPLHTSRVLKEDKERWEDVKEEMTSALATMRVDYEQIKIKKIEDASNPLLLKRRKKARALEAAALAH
Serine/threonine-protein kinase RIO3 (Homo sapiens), sequence (O14730 whole entry, the tested form may be a part): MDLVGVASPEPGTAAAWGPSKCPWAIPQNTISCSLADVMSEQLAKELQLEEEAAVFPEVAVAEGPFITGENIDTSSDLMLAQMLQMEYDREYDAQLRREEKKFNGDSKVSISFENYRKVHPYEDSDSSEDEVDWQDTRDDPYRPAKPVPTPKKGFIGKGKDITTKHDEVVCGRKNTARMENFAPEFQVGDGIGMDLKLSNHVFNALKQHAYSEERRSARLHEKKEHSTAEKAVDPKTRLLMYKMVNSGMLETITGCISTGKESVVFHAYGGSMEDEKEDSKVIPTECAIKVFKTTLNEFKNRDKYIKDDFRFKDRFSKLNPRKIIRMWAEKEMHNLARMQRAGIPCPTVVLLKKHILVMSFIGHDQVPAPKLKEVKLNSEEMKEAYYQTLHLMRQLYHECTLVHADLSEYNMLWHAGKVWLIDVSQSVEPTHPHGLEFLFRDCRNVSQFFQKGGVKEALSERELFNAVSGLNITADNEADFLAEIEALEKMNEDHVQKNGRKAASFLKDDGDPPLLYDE
Mitogen-activated protein kinase 15 (Homo sapiens), sequence (Q8TD08 whole entry, the tested form may be a part): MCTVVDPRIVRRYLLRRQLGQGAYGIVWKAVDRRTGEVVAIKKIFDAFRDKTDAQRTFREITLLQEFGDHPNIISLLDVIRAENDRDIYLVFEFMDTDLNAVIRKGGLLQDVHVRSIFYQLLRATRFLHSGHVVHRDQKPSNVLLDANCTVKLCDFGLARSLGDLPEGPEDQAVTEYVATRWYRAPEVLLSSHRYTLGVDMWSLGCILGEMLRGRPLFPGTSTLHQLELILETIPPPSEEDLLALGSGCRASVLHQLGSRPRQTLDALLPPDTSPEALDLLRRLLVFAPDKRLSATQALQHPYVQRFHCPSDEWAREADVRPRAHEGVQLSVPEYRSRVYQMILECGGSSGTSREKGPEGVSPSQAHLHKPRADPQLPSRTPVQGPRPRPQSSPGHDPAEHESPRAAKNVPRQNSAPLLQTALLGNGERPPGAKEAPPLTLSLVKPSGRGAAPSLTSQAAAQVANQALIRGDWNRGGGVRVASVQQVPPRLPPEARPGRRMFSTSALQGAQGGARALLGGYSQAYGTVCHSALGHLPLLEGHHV
TGF-beta receptor type-1 (Homo sapiens), sequence (P36897 whole entry, the tested form may be a part): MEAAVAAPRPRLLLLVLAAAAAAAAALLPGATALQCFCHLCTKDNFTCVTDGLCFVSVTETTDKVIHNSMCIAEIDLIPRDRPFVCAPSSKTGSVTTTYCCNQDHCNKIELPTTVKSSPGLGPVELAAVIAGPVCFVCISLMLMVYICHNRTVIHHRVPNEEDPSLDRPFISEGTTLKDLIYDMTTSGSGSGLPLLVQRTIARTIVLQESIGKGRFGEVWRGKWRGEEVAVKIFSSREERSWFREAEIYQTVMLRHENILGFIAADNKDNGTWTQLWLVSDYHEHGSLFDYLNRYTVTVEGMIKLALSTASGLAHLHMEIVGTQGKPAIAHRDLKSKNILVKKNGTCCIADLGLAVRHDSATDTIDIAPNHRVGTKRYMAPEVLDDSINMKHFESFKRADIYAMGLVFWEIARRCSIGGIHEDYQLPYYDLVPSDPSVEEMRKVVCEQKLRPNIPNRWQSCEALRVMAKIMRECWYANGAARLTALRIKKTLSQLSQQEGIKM
SNF-related serine/threonine-protein kinase (Homo sapiens), sequence (Q9NRH2 whole entry, the tested form may be a part): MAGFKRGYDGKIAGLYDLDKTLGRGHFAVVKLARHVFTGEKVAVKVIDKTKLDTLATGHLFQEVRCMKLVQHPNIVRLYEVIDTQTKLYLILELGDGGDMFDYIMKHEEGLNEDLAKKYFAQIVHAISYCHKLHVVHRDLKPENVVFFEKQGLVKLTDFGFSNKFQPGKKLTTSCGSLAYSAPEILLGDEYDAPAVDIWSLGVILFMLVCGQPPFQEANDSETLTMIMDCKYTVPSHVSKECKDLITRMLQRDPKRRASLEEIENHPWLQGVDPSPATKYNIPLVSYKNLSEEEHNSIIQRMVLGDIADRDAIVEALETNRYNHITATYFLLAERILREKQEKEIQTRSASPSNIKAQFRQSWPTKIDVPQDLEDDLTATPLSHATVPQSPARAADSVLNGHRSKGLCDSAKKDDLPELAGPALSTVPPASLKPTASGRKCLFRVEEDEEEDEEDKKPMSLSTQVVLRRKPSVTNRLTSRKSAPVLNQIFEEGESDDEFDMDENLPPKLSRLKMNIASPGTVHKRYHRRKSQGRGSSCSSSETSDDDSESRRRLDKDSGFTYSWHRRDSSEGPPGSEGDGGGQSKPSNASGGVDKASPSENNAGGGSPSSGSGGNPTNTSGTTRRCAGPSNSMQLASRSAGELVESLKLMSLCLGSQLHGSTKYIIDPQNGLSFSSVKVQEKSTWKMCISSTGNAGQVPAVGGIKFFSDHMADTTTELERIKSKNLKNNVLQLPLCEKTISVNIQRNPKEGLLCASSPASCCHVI
Calcium/calmodulin-dependent protein kinase type 1D (Homo sapiens), sequence (Q8IU85 whole entry, looked up, the tested form may be a part): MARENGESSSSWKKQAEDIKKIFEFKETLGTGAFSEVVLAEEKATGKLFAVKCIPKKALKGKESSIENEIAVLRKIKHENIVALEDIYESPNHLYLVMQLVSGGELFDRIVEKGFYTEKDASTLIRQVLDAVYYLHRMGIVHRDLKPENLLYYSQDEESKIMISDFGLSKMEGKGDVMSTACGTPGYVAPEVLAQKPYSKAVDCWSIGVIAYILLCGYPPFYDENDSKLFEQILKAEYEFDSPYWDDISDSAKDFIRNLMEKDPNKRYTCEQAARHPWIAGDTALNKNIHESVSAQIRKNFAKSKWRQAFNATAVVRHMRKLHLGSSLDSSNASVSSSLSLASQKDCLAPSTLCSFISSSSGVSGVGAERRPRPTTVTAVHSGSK
Ephrin type-A receptor 4 (Homo sapiens), sequence (P54764 whole entry, the tested form may be a part): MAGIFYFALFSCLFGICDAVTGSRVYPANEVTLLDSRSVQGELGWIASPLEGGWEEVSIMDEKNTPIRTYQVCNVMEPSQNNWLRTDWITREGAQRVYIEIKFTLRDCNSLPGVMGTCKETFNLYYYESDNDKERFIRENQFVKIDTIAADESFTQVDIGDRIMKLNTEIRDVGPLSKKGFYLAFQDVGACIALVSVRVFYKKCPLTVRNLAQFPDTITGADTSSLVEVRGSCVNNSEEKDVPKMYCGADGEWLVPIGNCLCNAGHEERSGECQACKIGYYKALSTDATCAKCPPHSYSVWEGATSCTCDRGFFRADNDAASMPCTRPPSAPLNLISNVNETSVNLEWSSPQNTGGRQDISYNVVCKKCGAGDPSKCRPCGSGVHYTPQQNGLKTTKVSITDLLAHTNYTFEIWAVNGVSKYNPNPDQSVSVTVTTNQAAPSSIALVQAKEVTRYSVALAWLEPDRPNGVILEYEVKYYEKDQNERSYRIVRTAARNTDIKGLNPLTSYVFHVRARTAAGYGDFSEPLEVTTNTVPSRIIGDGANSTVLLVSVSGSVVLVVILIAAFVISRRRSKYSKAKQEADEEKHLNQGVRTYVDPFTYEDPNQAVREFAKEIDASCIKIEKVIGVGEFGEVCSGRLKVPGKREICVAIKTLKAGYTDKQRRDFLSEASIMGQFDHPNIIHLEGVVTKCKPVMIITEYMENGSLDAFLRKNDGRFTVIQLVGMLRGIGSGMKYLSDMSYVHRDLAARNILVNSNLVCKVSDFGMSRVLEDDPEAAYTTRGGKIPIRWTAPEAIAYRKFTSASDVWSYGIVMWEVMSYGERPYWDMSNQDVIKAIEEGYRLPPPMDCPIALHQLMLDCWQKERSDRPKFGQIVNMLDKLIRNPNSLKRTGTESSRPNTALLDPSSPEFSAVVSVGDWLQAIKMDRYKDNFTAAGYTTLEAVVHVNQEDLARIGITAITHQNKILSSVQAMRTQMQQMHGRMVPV
Mitogen-activated protein kinase 3 (Homo sapiens), sequence (P27361 whole entry, the tested form may be a part): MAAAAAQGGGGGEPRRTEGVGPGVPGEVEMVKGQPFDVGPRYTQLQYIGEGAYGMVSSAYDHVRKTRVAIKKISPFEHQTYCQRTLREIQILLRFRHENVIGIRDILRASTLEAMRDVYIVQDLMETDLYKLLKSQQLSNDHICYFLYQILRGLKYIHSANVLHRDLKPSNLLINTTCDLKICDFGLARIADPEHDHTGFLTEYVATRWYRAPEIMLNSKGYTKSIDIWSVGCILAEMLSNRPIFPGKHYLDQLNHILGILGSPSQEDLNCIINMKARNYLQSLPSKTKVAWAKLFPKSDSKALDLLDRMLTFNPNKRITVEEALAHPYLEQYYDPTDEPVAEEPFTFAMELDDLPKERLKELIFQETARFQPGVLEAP
Serine/threonine-protein kinase 4 (Homo sapiens), sequence (Q13043 whole entry, the tested form may be a part): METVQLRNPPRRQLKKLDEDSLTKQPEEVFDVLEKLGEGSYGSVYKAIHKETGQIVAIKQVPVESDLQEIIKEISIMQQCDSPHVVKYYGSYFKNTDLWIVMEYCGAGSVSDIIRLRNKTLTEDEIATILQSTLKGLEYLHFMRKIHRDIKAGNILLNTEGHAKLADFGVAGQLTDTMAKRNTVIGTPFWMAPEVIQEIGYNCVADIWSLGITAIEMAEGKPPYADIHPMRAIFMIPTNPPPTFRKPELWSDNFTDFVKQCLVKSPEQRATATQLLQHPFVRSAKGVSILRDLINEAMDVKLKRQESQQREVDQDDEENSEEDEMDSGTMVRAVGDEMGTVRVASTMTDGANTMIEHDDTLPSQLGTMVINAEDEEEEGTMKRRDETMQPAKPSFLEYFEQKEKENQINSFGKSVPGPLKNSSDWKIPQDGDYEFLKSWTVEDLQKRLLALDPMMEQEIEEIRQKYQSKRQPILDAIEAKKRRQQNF

Structure (SMILES) | Activity [1] [%] | Activity [2] [%] | Activity [3] [%] | Activity [4] [%] | Activity [5] [%] | Activity [6] [%] | Activity [7] [%] | Activity [8] [%] | Activity [9] [%] | Activity [10] [%] | Activity [11] [%] | Activity [12] [%] | Activity [13] [%] | Activity [14] [%] | Activity [15] [%] | Activity [16] [%] | Activity [17] [%] | Activity [18] [%] | Activity [19] [%] | Activity [20] [%] | also measured
CC1(C)[C@H](Nc2c(C(N)=O)cnn3cc(-c4ccccc4)cc23)CC[C@]1(C)N | 38 | 89 | 100 | 97 | 100 | 65 | 91 | 100 | 3.6 | 74 | 100 | 100 | 100 | 3.7 | 83 | 72 | 100 | 48 | 49 | 93 | Activity [21]: 19%; Activity [22]: 100%; Activity [23]: 100%; Activity [24]: 82%; Activity [25]: 67%
COc1ccc(-c2cc3c(N[C@@H]4CC[C@](C)(N)C4(C)C)c(C(N)=O)cnn3c2)cn1 | 74 | 100 | 100 | 100 | 95 | 100 | 97 | 100 | 26 | 87 | 100 | 98 | 92 | 66 | 97 | 81 | 100 | 75 | 70 | 100 | Activity [21]: 35%; Activity [22]: 100%; Activity [23]: 100%; Activity [24]: 91%; Activity [25]: 100%
